This note sets out measurements from US20080293771A1, “AZACYCLYLBENZAMIDE DERIVATIVES AS HISTAMINE-3 ANTAGONISTS” (Wyeth, priority 2007, published 2008).

Counter-ions that a name gives are not always drawn.

The target in data set [1] is T1, Human Histamine H3 Receptor (Homo sapiens, UniProt Q9Y5N1).
T1 construct: expressed in transfected cells; host or cells: HEK293T (stably transfected; membrane preparation)
As to the kind of experiment: Methyl histamine binding in Human Histamine H3 Receptor Cell Line. Particulars: read-out: hH3 Binding Ki. Here is the method:
Evaluation of Methyl histamine binding in Human Histamine H3 Receptor Cell Line
The affinity of test compounds for the histamine 3 (H3) receptor is evaluated in the following manner. […] Cells are scraped from the plate, transferred to centrifuge tubes, washed one time in PBS by centrifugation in a Sorvall RT7 Plus centrifuge (2000 rpm 10 minutes, 4° C.). The resulting pellets are stored at −80° C. until ready for use. Cells are re-suspended in buffer (50 mM Tris pH=7.5) and placed in a Dounce homogenizer, douncing ten times to homogenize cells. The homogenate is spun down by centrifugation (Sorvall RT7 Plus, 1800 rpm 10 minutes, 4° C.). The supernatant is placed in a Corex tube and spun down by centrifugation (Sorvall RC 5c Plus, 17,000 rpm 20 minutes, 4° C.). The pellet is resuspended in buffer (50 mM Tris, pH 7.5). Protein concentration (ug/ul) is determined using the Micro-BCA Protein Determination. The binding assay is set up in a 96 well microtiter plate in a total volume of 250 uL. Non-specific binding is determined in the presence of 10 uM clobenpropit. The final radioligand concentration is 1 nM. The test compound is serially diluted using the Beckman Biomek2000 to a final approximate range of 100 uM to 100 pM. Membranes are suspended in buffer, homogenized in 2 bursts of ten seconds using a Vitris mechanical homogenizer set at power setting 5. Ten μg of membranes are added to each well. Following a one hour incubation at 30° C., the reaction is terminated by the addition of ice cold buffer and rapid filtration with a Packard Filtermate Harvester through a GF/B filter pre-soaked with 1% PEI for one hour. The plate is dried for one hour at 37° C. and 60 μL Microscint Scintillant is added to each well. The CPM per well is measured on a Packard Top Count NXT. Ki values are determined in nM. […] CPM values are expressed as % specific binding and plotted vs compound concentration. A curve is fitted using a four-parameter logistic fit and the IC50 value is determined. The Ki is calculated from this using the Cheng-Prusoff equation: […]=IC50/1+(L/Kd) where L=concentration of free radioligand used in the assay, and Kd is the dissociation constant of the radioligand for the receptor. L is determined for each experiment by counting an aliquot of the diluted radioligand (corresponding to that added to each well) and the Kd has previously been determined under identical conditions for this cell line/radioligand.

T1 sequence (Q9Y5N1 whole entry): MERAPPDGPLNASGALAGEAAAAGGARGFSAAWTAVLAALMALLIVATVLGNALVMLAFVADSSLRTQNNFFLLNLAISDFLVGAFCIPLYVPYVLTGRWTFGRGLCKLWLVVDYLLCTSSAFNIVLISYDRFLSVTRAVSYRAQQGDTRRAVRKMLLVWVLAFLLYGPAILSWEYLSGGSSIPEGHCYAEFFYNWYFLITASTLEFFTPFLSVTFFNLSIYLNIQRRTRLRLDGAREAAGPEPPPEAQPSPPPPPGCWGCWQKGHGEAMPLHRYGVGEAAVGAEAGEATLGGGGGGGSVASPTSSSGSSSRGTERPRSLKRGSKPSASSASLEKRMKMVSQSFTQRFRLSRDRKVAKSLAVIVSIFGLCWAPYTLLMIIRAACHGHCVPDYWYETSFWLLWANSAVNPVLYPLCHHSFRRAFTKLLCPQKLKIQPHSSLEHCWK

In the case of `Cc1nc2ccccc2n1-c1ccc(C(=O)N(C)C2CCN(C(C)C)CC2)c(Cl)c1` (as salt: hydrochloride) [Example 121, 2-chloro-N-methyl-4-(2-methyl-1H-benzimidazol-1-yl)-N-[1-(1-methylethyl)piperidin-4-yl]benzamide], the melting point is 250 °C (dec.). Take `Cc1nc2ccccc2n1-c1ccc(C(=O)N(C)C2CCN(C3CCCC3)CC2)c(Cl)c1` (as salt: hydrochloride) [Example 122, 2-chloro-N-(1-cyclopentylpiperidin-4-yl)-N-methyl-4-(2-methyl-1H-benzimidazol-1-yl)benzamide]: the melting point was 240 °C (dec.). With `Cc1cc(C(=O)N(C)C2CCN(C(C)C)CC2)ccc1-n1c(C)nc2ccccc21` (as salt: hydrochloride) [Example 123, N,3-dimethyl-4-(2-methyl-1H-benzimidazol-1-yl)-N-[1-(1-methylethyl)piperidin-4-yl]benzamide], the melting point is 250 °C (dec.).

For `Cc1cc(C(=O)N(C)C2CCN(C3CCCC3)CC2)ccc1-n1c(C)nc2ccccc21` (as salt: hydrochloride) [Example 124, N-(1-cyclopentylpiperidin-4-yl)-N,3-dimethyl-4-(2-methyl-1H-benzimidazol-1-yl)benzamide], the melting point is 240 °C (dec.).

`COc1cc(C(=O)N(C)C2CCN(C(C)C)CC2)ccc1-n1c(C)nc2ccccc21` (as salt: hydrochloride) [Example 125, 3-methoxy-N-methyl-4-(2-methyl-1H-benzimidazol-1-yl)-N-[1-(1-methylethyl)piperidin-4-yl]benzamide]: the melting point was 250 to 252 °C. Still for that read-out and setting: then `COc1cc(C(=O)N(C)C2CCN(C3CCCC3)CC2)ccc1-n1c(C)nc2ccccc21` (as salt: hydrochloride) [Example 126, N-(1-cyclopentylpiperidin-4-yl)-3-methoxy-N-methyl-4-(2-methyl-1H-benzimidazol-1-yl)benzamide], with 244 to 246 °C; and `COc1cc(-n2c(C)nc3ccccc32)ccc1C(=O)N(C)C1CCN(C(C)C)CC1` (as salt: hydrochloride) [Example 127, N-(1-isopropylpiperidin-4-yl)-2-methoxy-N-methyl-4-(2-methyl-1H-benzo[d]imidazol-1-yl)benzamide], with 215 to 217 °C; and `COc1cc(-n2c(C)nc3ccccc32)ccc1C(=O)N(C)C1CCN(C2CCCC2)CC1` (as salt: hydrochloride) [Example 128, N-(1-cyclopentylpiperidin-4-yl)-2-methoxy-N-methyl-4-(2-methyl-1H-benzo[d]imidazol-1-yl)benzamide], with 210 to 212 °C. As to `Cc1nc2ccccc2n1-c1ccc(C(=O)N[C@@H]2CCN(C3CCCCC3)C2)cc1` (as salt: hydrochloride) [Example 137, N-[(3R)-1-cyclohexylpyrrolidin-3-yl]-4-(2-methyl-1H-benzimidazol-1-yl)benzamide], the melting point lay in the range of 194 to 196 °C. For the compound `CCN(C(=O)c1ccc(-n2c(C)nc3ccccc32)cc1)[C@@H]1CCNC1` (as salt: hydrochloride) [Example 138, (R)—N-ethyl-4-(2-methyl-1H-benzo[d]imidazol-1-yl)-N-(pyrrolidin-3-yl)benzamide hydrochloride], the melting point lay in the range of 174 to 176 °C. On the same count and under the same terms, for `CCN(C(=O)c1ccc(-n2c(C)nc3ccccc32)cc1)[C@@H]1CCN(C2CCCCC2)C1` (as salt: hydrochloride) [Example 142, N-[(3R)-1-cyclohexylpyrrolidin-3-yl]-N-ethyl-4-(2-methyl-1H-benzimidazol-1-yl)benzamide] the value was 177 to 179 °C; for `Cc1nc2ccccc2n1Cc1ccc(C(=O)N(C)[C@@H]2CCN(C(C)C)C2)c2ccccc12` (as salt: hydrochloride) [Example 143a, (R)—N-(1-isopropylpyrrolidin-3-yl)-N-methyl-4-((2-methyl-1H-benzo[d]imidazol-1-yl)methyl)-1-naphthamide], 192 to 194 °C; for `Cc1nc2ccccc2n1Cc1ccc(C(=O)N(C)[C@@H]2CCN(C3CCC3)C2)c2ccccc12` (as salt: hydrochloride) [Example 143b, (R)—N-(1-cyclobutylpyrrolidin-3-yl)-N-methyl-4-((2-methyl-1H-benzo[d]imidazol-1-yl)methyl)-1-naphthamide], 157 to 159 °C. Still for that read-out and setting: then `Cc1nc2ccccc2n1Cc1ccc(C(=O)N(C)C2CCN(C3CCCC3)CC2)c2ccccc12` (as salt: hydrochloride) [Example 144a, N-(1-cyclopentylpiperidin-4-yl)-N-methyl-4-((2-methyl-1H-benzo[d]imidazol-1-yl)methyl)-1-naphthamide], with 228 to 230 °C; and `Cc1nc2ccccc2n1Cc1ccc(C(=O)N(C)C2CCN(C(C)C)CC2)c2ccccc12` (as salt: hydrochloride) [Example 144b, N-(1-isopropylpiperidin-4-yl)-N-methyl-4-((2-methyl-1H-benzo[d]imidazol-1-yl)methyl)-1-naphthamide], with 153 to 155 °C. As to `Cc1nc2ccccc2n1-c1ccc(C(=O)N(C)C2CCNCC2)cc1` [Example 30, N-Methyl-4-(2-methylbenzimidazol-1-yl)-N-piperidin-4-yl-benzamide Hydrochloride], the inhibition constant (Ki) in data set [1] was more than 100 nM. The same measure, in the same setting: for `Cc1nc2ccccc2n1-c1ccc(C(=O)N(C)C2CCN(C(C)C)CC2)cc1` [Example 31, N-(1-isopropylpiperidin-4-yl)-N-methyl-4-(2-methyl-1H-benzimidazol-1-yl)benzamide] the value was not above 10 nM; for `Cc1nc2ccccc2n1-c1ccc(C(=O)N(C)C2CCN(C3CCCC3)CC2)cc1` [Example 32, N-(1-cyclopentylpiperidin-4-yl)-N-methyl-4-(2-methyl-1H-benzimidazol-1-yl)benzamide], not above 10 nM; for `Cc1nc2ccccc2n1-c1ccc(C(=O)N(C)C2CCN(C3CCCCC3)CC2)cc1` [Example 33, N-(1-cyclohexylpiperidin-4-yl)-N-methyl-4-(2-methyl-1H-benzimidazol-1-yl)benzamide], more than 100 nM. On to `Cc1nc2ccccc2n1-c1ccc(C(=O)N(C)C2CCN(C3CCC3)CC2)cc1` [Example 34, N-(1-cyclobutylpiperidin-4-yl)-N-methyl-4-(2-methyl-1H-benzimidazol-1-yl)benzamide], for which, in data set [1], the Ki was in the range of 10.1 to 50 nM. For the compound `Cc1nc2ccccc2n1Cc1ccc(C(=O)N(C)[C@@H]2CCNC2)cc1` [Example 35, N-Methyl-4-[(2-methylbenzimidazol-1-yl)methyl]-N—(R)-pyrrolidin-3-yl-benzamide Hydrochloride], the Ki in data set [1] is more than 100 nM.

Take `CN(C(=O)c1ccc(Cn2cnc3ccccc32)cc1)[C@@H]1CCNC1` [Example 36, (R)-4-((1H-benzo[d]imidazol-1-yl)methyl)-N-methyl-N-(pyrrolidin-3-yl)benzamide Hydrochloride]: the Ki in data set [1] was more than 100 nM. Still for that read-out and setting: then `Cc1nc2ccccc2n1Cc1ccc(C(=O)N(C)[C@@H]2CCN(C3CCCCC3)C2)cc1` [Example 40, N-[(3R)-1-cyclohexylpyrrolidin-3-yl]-N-methyl-4-[(2-methyl-1H-benzimidazol-1-yl)methyl]benzamide], with 10.1 to 50 nM.

On to `Cc1nc2ccccc2n1Cc1ccc(C(=O)N(C)C2CCN(C(C)C)CC2)cc1` [Example 46, N-(1-isopropylpiperidin-4-yl)-N-methyl-4-[(2-methyl-1H-benzimidazol-1-yl)methyl]benzamide], for which the Ki in data set [1] fell in the range of 50.1 to 100 nM. Same read-out and setting: for `Cc1nc2ccccc2n1Cc1ccc(C(=O)N(C)C2CCN(C3CCC3)CC2)cc1` [Example 47, N-(1-cyclobutylpiperidin-4-yl)-N-methyl-4-[(2-methyl-1H-benzimidazol-1-yl)methyl]benzamide] the value was more than 100 nM; for `Cc1nc2ccccc2n1Cc1ccc(C(=O)N(C)C2CCN(C3CCCC3)CC2)cc1` [Example 48, N-(1-cyclopentylpiperidin-4-yl)-N-methyl-4-[(2-methyl-1H-benzimidazol-1-yl)methyl]benzamide], more than 100 nM; for `CC(C)N1CCC(N(C)C(=O)c2ccc(Cn3cnc4ccccc43)cc2)CC1` [Example 49, 4-(1H-benzimidazol-1-ylmethyl)-N-(1-isopropylpiperidin-4-yl)-N-methylbenzamide], 50.1 to 100 nM.

Regarding `CN(C(=O)c1ccc(Cn2cnc3ccccc32)cc1)C1CCN(C2CCC2)CC1` [Example 50, 4-(1H-benzimidazol-1-ylmethyl)-N-(1-cyclobutylpiperidin-4-yl)-N-methylbenzamide], the Ki in data set [1] was more than 100 nM.

For orientation: melting point means the temperature, or range, at which the solid turns liquid. A word on the Ki: it is a measure of affinity in units of concentration, obtained from inhibition or displacement.
